Where two headings read alike, the source gives them in different places.
Target: T1, human APJ receptor (Homo sapiens, UniProt P35414)
T1 construct: expressed in transfected cells
T1 sequence (P35414 1-380): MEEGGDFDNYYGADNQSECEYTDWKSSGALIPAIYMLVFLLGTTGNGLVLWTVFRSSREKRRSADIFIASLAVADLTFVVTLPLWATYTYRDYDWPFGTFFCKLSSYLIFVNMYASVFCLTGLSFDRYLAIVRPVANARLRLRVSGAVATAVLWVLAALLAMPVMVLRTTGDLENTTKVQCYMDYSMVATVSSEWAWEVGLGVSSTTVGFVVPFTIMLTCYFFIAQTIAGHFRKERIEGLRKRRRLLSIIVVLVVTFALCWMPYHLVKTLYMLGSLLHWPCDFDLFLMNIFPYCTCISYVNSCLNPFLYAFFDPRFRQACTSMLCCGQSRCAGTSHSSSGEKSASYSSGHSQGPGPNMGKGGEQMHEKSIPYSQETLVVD
Assay: Intracellular cAMP accumulation assay (APJ hcAMP, HTRF)
Type: cell-based
Settings: HEK293 cells stably expressing human APJ receptor
Experimental: Intracellular cAMP Accumulation Assay
HEK293 cells stably expressing human APJ receptor were used to assess the activity of compounds. Cultured cells were detached and resuspended in the cAMP Homogeneous Time-Resolved Fluorescence (HTRF) assay buffer (Cisbio cat; #62AM4PEJ). The assay was performed in 384-well assay plates (Perkin-Elmer; cat #6008289) according to assay protocol provided by the manufacturer. Serial dilutions of a compound together with assay buffer containing […] IBMX and 2 μM forskolin were added to each well containing 5,000 cells and incubated for 30 minutes at room temperature. Subsequently, cAMP D2 reagent was added in the lysis buffer followed by the EuK antibody (Cisbio; cat #62AM4PEJ) and incubated for 60 min. The fluorescence emission ratio was measured using fluorometer. The intracellular cAMP concentrations (compound-stimulated inhibition of forskolin-mediated cAMP production) were calculated by extrapolation from a standard curve using known cAMP concentrations. The EC50 values were obtained by fitting the data to a sigmoidal concentration-response curve with variable slope. The maximal achievable inhibition of forskolin-induced cAMP levels (Ymax) for each compound was expressed as relative percentage of inhibition attained using pyroglutamated apelin-13 ((Pyrl)apelin-13) peptide, which was set to 100%.
The exemplified Examples disclosed below were tested in the APJ in vitro assays described above and were found having human APJ cyclic AMP (hcAMP) activity. Table 1 lists hcAMP EC50 values measured for the following examples. Ranges are as followε: A=0.0-10 nM; B=10.01-100 nM; C=101-500 nM.

[1] = Table 1, inhibition of forskolin-mediated cAMP production, read-out: APJ hcAMP EC50
[2] = Table 3, read-out: APJ cAMP Human EC50

Row | Structure (SMILES) | EC50 [1] [nM] | EC50 [2] [nM]
1 | CCC[C@@H](NC(=O)c1ccc(-c2c(Cl)cccc2-c2ncc(-c3ccc(C)c(F)c3)[nH]2)c(C(=O)O)c1)c1ccccc1 (atropisomer, axis not shown) [Example 104, (S)-2′-chloro-6′-[5-(3-fluoro-4-methylphenyl)-1H-imidazol-2-yl]-4-{[(1R)-1-phenylbutyl]carbamoyl}-[1,1′-biphenyl]-2-carboxylic acid] | < 10 | < 10
2 | CCC[C@@H](NC(=O)c1ccc(-c2c(Cl)cccc2-c2ncc(-c3ccc(OC)cc3)[nH]2)c(C(=O)O)c1)c1ccccc1 (atropisomer, axis not shown) [Example 105, (S)-2′-chloro-6′-[5-(4-methoxyphenyl)-1H-imidazol-2-yl]-4-{[(1R)-1-phenylbutyl]carbamoyl}-[1,1′-biphenyl]-2-carboxylic acid] | < 10 | < 10
3 | CCC[C@@H](NC(=O)c1ccc(-c2c(Cl)cccc2-c2nc(C)c(-c3ccccc3)[nH]2)c(C(=O)O)c1)c1ccccc1 (atropisomer, axis not shown) [Example 106, (S)-2′-chloro-6′-(4-methyl-5-phenyl-1H-imidazol-2-yl)-4-{[(1R)-1-phenylbutyl]carbamoyl}-[1,1′-biphenyl]-2-carboxylic acid] | – | 10 to 100
4 | CCC[C@@H](NC(=O)c1ccc(-c2c(Cl)cccc2-c2ncc(-c3ccncc3)[nH]2)c(C(=O)O)c1)c1ccccc1 (atropisomer, axis not shown) [Example 107, (S)-2′-chloro-4-{[(1R)-1-phenylbutyl]carbamoyl}-6′-[5-(pyridin-4-yl)-1H-imidazol-2-yl]-[1,1′-biphenyl]-2-carboxylic acid] | – | 10 to 100
5 | CCC[C@@H](NC(=O)c1ccc(-c2c(Cl)cccc2-c2nc3cc(Cl)c(F)cc3[nH]2)c(C(=O)O)c1)c1ccccc1 (atropisomer, axis not shown) [Example 108, (S)-2′-chloro-6′-(5-chloro-6-fluoro-1H-1,3-benzodiazol-2-yl)-4-{[(1R)-1-phenylbutyl]carbamoyl}-[1,1′-biphenyl]-2-carboxylic acid] | – | < 10
6 | CCC[C@@H](NC(=O)c1ccc(-c2c(Cl)cccc2-c2nc3cc(O)ccc3[nH]2)c(C(=O)OC)c1)c1ccccc1 (atropisomer, axis not shown) [Example 128, (S)-methyl 2′-chloro-6′-(5-hydroxy-1H-1,3-benzodiazol-2-yl)-4-{[(1R)-1-phenylbutyl]carbamoyl}-[1,1′-biphenyl]-2-carboxylate] | – | 10 to 100
7 | CCC[C@@H](NC(=O)c1ccc(-c2c(Cl)cccc2-c2nc3cc(OC)ccc3[nH]2)c(C(=O)O)c1)c1ccccc1 (atropisomer, axis not shown) [Example 132, (S)-2′-chloro-6′-(5-methoxy-1H-1,3-benzodiazol-2-yl)-4-{[(1R)-1-phenylbutyl]carbamoyl}-[1,1′-biphenyl]-2-carboxylic acid] | < 10 | < 10
8 | CCC[C@@H](NC(=O)c1ccc(-c2c(Cl)cccc2-c2nc3cnccc3[nH]2)c(C(=O)O)c1)c1ccccc1 (atropisomer, axis not shown) [Example 133, (S)-2′-chloro-6′-{1H-imidazo[4,5-c]pyridin-2-yl}-4-{[(1R)-1-phenylbutyl]carbamoyl}-[1,1′-biphenyl]-2-carboxylic acid] | – | < 10
9 | CCC[C@@H](NC(=O)c1ccc(-c2c(Cl)cccc2-c2nc3cc(OC(C)=O)ccc3[nH]2)c(C(=O)O)c1)c1ccccc1 (atropisomer, axis not shown) [Example 134, (S)-2′-[5-(acetyloxy)-1H-1,3-benzodiazol-2-yl]-6′-chloro-4-{[(1R)-1-phenylbutyl]carbamoyl}-[1,1′-biphenyl]-2-carboxylic acid] | < 10 | < 10

Further lines, results first:

Row | EC50 [1] [nM] | EC50 [2] [nM] | Structure (SMILES)
10 | – | 10 to 100 | CCC[C@@H](NC(=O)c1ccc(-c2c(Cl)cccc2-c2nc3cc(O)ccc3[nH]2)c(C(=O)O)c1)c1ccccc1 (atropisomer, axis not shown) [Example 135, (S)-2′-chloro-6′-(5-hydroxy-1H-1,3-benzodiazol-2-yl)-4-{[(1R)-1-phenylbutyl]carbamoyl}-[1,1′-biphenyl]-2-carboxylic acid]
11 | – | 101 to 500 | CCC[C@@H](NC(=O)c1ccc(-c2c(Cl)cccc2-c2nc3cc(OC(C)=O)ccc3[nH]2)c(C(=O)O)c1)c1ccccc1 (atropisomer, axis not shown) [Example 136, (S)-2′-[5-(acetyloxy)-1H-1,3-benzodiazol-2-yl]-6′-chloro-4-{[(1R)-1-phenylbutyl]carbamoyl}-[1,1′-biphenyl]-2-carboxylic acid]
12 | – | 10 to 100 | CCC[C@@H](NC(=O)c1ccc(-c2c(Cl)cccc2-c2nc3ccccc3[nH]2)c(C(=O)O)c1)c1ccccc1 (atropisomer, axis not shown) [Example 141, (R)-2′-(1H-1,3-benzodiazol-2-yl)-6′-chloro-4-{[(1R)-1-phenylbutyl]carbamoyl}-[1,1′-biphenyl]-2-carboxylic acid]
13 | < 10 | < 10 | COC[C@@H](NC(=O)c1ccc(-c2c(Cl)cccc2-c2nc3ccccc3[nH]2)c(C(=O)O)c1)c1ccccc1 (atropisomer, axis not shown) [Example 150, (S)-2′-(1H-1,3-benzodiazol-2-yl)-6′-chloro-4-{[(1S)-2-methoxy-1-phenylethyl]carbamoyl}-[1,1′-biphenyl]-2-carboxylic acid]
14 | < 10 | < 10 | CC(C)(O)C[C@@H](NC(=O)c1ccc(-c2c(Cl)cccc2-c2nc3ccccc3[nH]2)c(C(=O)O)c1)c1ccccc1 (atropisomer, axis not shown) [Example 151, (S)-2′-(1H-1,3-benzodiazol-2-yl)-6′-chloro-4-{[(1R)-3-hydroxy-3-methyl-1-phenylbutyl]carbamoyl}-[1,1′-biphenyl]-2-carboxylic acid]
15 | – | 10 to 100 | CCC[C@H](NC(=O)c1ccc(-c2c(Cl)cccc2-c2nc3ccccc3[nH]2)c(C(=O)O)c1)c1ccccc1 (atropisomer, axis not shown) [Example 152, (S)-2′-(1H-1,3-benzodiazol-2-yl)-6′-chloro-4-{[(1S)-1-phenylbutyl]carbamoyl}-[1,1′-biphenyl]-2-carboxylic acid]
16 | – | < 10 | COC[C@@H](NC(=O)c1ccc(-c2c(Cl)cccc2-c2nc3cc(OC)c(F)cc3[nH]2)c(C(=O)O)c1)c1ccccc1 (atropisomer, axis not shown) [Example 154, (S)-2′-chloro-6′-(6-fluoro-5-methoxy-1H-1,3-benzodiazol-2-yl)-4-{[(1S)-2-methoxy-1-phenylethyl]carbamoyl}-[1,1′-biphenyl]-2-carboxylic acid]
17 | – | < 10 | CCC[C@@H](NC(=O)c1ccc(-c2c(Cl)cccc2-c2nc3cc(O)ccc3[nH]2)c(C(=O)O)c1)c1ccccc1 (atropisomer, axis not shown) [Example 155, (S)-2′-chloro-6′-(5-hydroxy-1H-1,3-benzodiazol-2-yl)-4-{[(1R)-1-phenylbutyl]carbamoyl}-[1,1′-biphenyl]-2-carboxylic acid]
18 | < 10 | < 10 | O=C(N[C@H](CN1CCOCC1)c1ccccc1)c1ccc(-c2c(Cl)cccc2-c2nc3ccccc3[nH]2)c(C(=O)O)c1 (atropisomer, axis not shown) [Example 156, (S)-2′-(1H-1,3-benzodiazol-2-yl)-6′-chloro-4-{[(1S)-2-(morpholin-4-yl)-1-phenylethyl]carbamoyl}-[1,1′-biphenyl]-2-carboxylic acid]

Source: US11498903B2 (BRISTOL-MYERS SQUIBB COMPANY, priority 2017, dated 2022)
